US9850283B2, “Macrocyclic inhibitors of the PD-1/PD-L1 and CD80(B7-1)/PD-L1 protein/protein interactions” (BRISTOL-MYERS SQUIBB COMPANY, priority 2013, dated 2017)
Read-outs that look alike come from different tables or passages of the source. Positions of bridges follow the written chain, without caps; N, C: chain ends. Non-standard residues stand in square brackets, D forms with d. Residues, ends and D or L forms follow the SMILES beside them. ξ: configuration not given here. Pro(trans-4-cHex) = O=C(O)[C@@H]1C[C@@H](C2CCCCC2)CN1; Trp(5-Cl) = N[C@@H](Cc1c[nH]c2ccc(Cl)cc12)C(=O)O; Phe(3-CN) = N#Cc1cccc(C[C@H](N)C(=O)O)c1; Phe(3-F) = N[C@@H](Cc1cccc(F)c1)C(=O)O; Phe(2-Me) = Cc1ccccc1C[C@H](N)C(=O)O; Bta = N[C@@H](Cc1csc2ccccc12)C(=O)O; Hyp = O=C(O)[C@@H]1C[C@@H](O)CN1; NMeF = CN[C@@H](Cc1ccccc1)C(=O)O; Chg = N[C@H](C(=O)O)C1CCCCC1; NMeNle = CCCC[C@H](NC)C(=O)O; NMeA = CN[C@@H](C)C(=O)O; Orn = NCCC[C@H](N)C(=O)O; Dab = NCC[C@H](N)C(=O)O; Dap = NC[C@H](N)C(=O)O; ξC = NC(CS)C(=O)O; Sar = CNCC(=O)O

Tests used:
Human PD-L1/PD-1 = target: T1, Human PD-L1/PD-1 (Homo sapiens, UniProt Q9NZQ7); assay: HTRF PD-1-Ig/PD-L1-His binding assay (human PD-L1); conditions: cluster symbol; read-out: HTRF IC50 cluster
T1 construct: made in house; host or cells: HEK293T
Summary of the method: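 Readout: time-resolved FRET between Eu cryptate-labeled anti-Ig (1 nM final) and APC-labeled anti-His (20 nM final) antibodies. These detect interaction of Fc-fused PD-1 with His-tagged human PD-L1 in dPBS containing 0.1% BSA and 0.05% Tween-20.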

[1] = target: T2, LK35.2-hPD-L1 cells / PE-labeled PD-1-Ig (Homo sapiens, UniProt Q9NZQ7); assay: LK35.2-hPD-L1 cell binding high-content screening assay; type: cell-based; conditions: cluster symbol, read-out: CBA IC50 cluster
T2 construct: expressed in transfected cells; host or cells: LK35.2 mouse B cell line
Summary of the method: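 Mouse LK35.2 B cells stably over-expressing human PD-L1, cultured overnight, treated with compound plus PE-labeled human PD-1-Ig (1 nM final) in RPMI/10% FCS for 1 h at 37 °C. After washing, bound fluorescence quantified by high-content imaging.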

[2] = cell binding assay, cell line not given
[3] = cell line of CBA not given (LK35.2-hPD-L1 or 293T-hPD-L1)

T1 sequence (Q9NZQ7 with tags, fused parts or gaps): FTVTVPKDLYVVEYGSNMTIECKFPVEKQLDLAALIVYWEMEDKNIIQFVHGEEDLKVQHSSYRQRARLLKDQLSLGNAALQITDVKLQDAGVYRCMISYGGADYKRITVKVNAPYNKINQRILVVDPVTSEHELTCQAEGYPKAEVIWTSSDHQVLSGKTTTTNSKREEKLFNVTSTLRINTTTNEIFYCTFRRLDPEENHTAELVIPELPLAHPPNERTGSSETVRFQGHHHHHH
T2 sequence (Q9NZQ7 19-290): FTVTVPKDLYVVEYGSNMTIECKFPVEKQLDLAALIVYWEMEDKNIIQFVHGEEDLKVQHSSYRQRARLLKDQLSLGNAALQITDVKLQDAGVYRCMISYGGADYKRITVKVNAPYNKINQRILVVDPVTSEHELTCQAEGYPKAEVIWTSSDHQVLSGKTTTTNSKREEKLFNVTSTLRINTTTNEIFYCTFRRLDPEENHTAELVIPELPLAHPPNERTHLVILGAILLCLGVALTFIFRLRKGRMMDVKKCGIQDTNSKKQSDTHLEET

Compound | IC50 (Human PD-L1/PD-1) | IC50 [1, 2] | IC50 [1, 3]
CCCC[C@H]1C(=O)N(C)[C@@H](CCCC)C(=O)N[C@@H](CCCN)C(=O)N[C@H](C(=O)NCC(N)=O)CSCC(=O)N[C@@H](Cc2ccc(O)cc2)C(=O)N(C)[C@@H](C)C(=O)N[C@@H](CC(N)=O)C(=O)N2CCC[C@H]2C(=O)N[C@@H](CN)C(=O)N[C@@H](CC(C)C)C(=O)N2C[C@H](C3CCCCC3)C[C@H]2C(=O)N[C@@H](Cc2c[nH]c3ccccc23)C(=O)N[C@@H](CO)C(=O)N[C@@H](Cc2c[nH]c3ccccc23)C(=O)N1C [Example 14007] ({CH2CO}-Y[NMeA]NP[Dap]L[Pro(trans-4-cHex)]WSW[NMeNle][NMeNle][Orn]CG-NH2; thioether N-14) | 0.385 to 6.74 nM | 0.158 to 4.71 nM | 
CCCC[C@H]1C(=O)N(C)[C@@H](CCCC)C(=O)N[C@@H](C)C(=O)N[C@H](C(=O)NCC(N)=O)CSCC(=O)N[C@@H](Cc2ccc(O)cc2)C(=O)N(C)[C@@H](C)C(=O)N[C@@H](CC(N)=O)C(=O)N2CCC[C@H]2C(=O)N[C@@H](Cc2cnc[nH]2)C(=O)N[C@@H](CCC(N)=O)C(=O)N2C[C@H](O)C[C@H]2C(=O)N[C@@H](Cc2c[nH]c3ccccc23)C(=O)N[C@@H](CCN)C(=O)N[C@@H](Cc2c[nH]c3ccccc23)C(=O)N1C [Example 5038] ({CH2CO}-Y[NMeA]NPHQ[Hyp]W[Dab]W[NMeNle][NMeNle]ACG-NH2; thioether N-14) | 6.76 to 30.3 nM | 0.158 to 4.71 nM | 
CCCC[C@H]1C(=O)N(C)[C@@H](CCCC)C(=O)N[C@@H](CCCNC(=N)N)C(=O)N[C@H](C(=O)NCC(N)=O)CSCC(=O)N[C@@H](Cc2ccccc2)C(=O)N(C)[C@@H](C)C(=O)N[C@@H](CC(N)=O)C(=O)N2CCC[C@H]2C(=O)N[C@@H](Cc2cnc[nH]2)C(=O)N[C@@H](CC(C)C)C(=O)N(C)CC(=O)N[C@@H](Cc2c[nH]c3ccc(Cl)cc23)C(=O)N[C@@H](CO)C(=O)N[C@@H](Cc2c[nH]c3ccc(Cl)cc23)C(=O)N1C [Example 1024] ({CH2CO}-F[NMeA]NPHL[Sar][Trp(5-Cl)]S[Trp(5-Cl)][NMeNle][NMeNle]RCG-NH2; thioether N-14) | > 30.5 nM |  | > 74.3 nM
CCCC[C@H]1C(=O)N(C)[C@@H](CCCC)C(=O)N[C@@H](CCCNC(=N)N)C(=O)N[C@H](C(=O)NCC(N)=O)CSCC(=O)N[C@@H](Cc2cccc(F)c2)C(=O)N(C)[C@@H](C)C(=O)N[C@@H](CC(N)=O)C(=O)N2CCC[C@H]2C(=O)N[C@@H](Cc2cnc[nH]2)C(=O)N[C@@H](CC(C)C)C(=O)N2CCC[C@H]2C(=O)N[C@@H](Cc2c[nH]c3ccccc23)C(=O)N[C@@H](CO)C(=O)N[C@@H](Cc2c[nH]c3ccccc23)C(=O)N1C [Example 7016] ({CH2CO}-[Phe(3-F)][NMeA]NPHLPWSW[NMeNle][NMeNle]RCG-NH2; thioether N-14) | 6.76 to 30.3 nM | 4.78 to 72.9 nM | 
CCCC[C@H]1C(=O)N(C)CC(=O)N[C@@H](CC(=O)O)C(=O)N[C@@H](C(C)C)C(=O)N(C)[C@@H](Cc2ccccc2)C(=O)N2CCC[C@H]2C(=O)N2CCC[C@@H]2C(=O)N[C@@H](Cc2c[nH]c3ccccc23)C(=O)N[C@@H](Cc2ccc(O)cc2)C(=O)N[C@@H](CC(C)C)C(=O)N[C@H](C(=O)NCC(N)=O)CSCC(=O)N[C@@H](Cc2ccccc2)C(=O)N(C)[C@@H](Cc2ccccc2)C(=O)N1C [Example 3176] (HELM PEPTIDE1{[O=C(C[*:3])[*:2]].F.[meF].[CCCC[C@@H](C(=O)[*:2])N(C)[*:1]].[Sar].D.V.[meF].P.[dP].W.Y.L.C.G.[am]}$PEPTIDE1,PEPTIDE1,1:R3-14:R3$$$V2.0) | > 30.5 nM |  | > 74.3 nM
CCCC[C@H]1C(=O)N(C)[C@@H](CCCC)C(=O)N[C@@H](CCCNC(=N)N)C(=O)N[C@H](C(=O)NCC(N)=O)CSCC(=O)N[C@@H](Cc2ccccc2)C(=O)N(C)[C@@H](C)C(=O)N[C@@H](CC(C)C)C(=O)N2CCC[C@H]2C(=O)N[C@@H](Cc2cnc[nH]2)C(=O)N[C@@H](CC(C)C)C(=O)N(C)CC(=O)N[C@@H](Cc2c[nH]c3ccccc23)C(=O)N[C@@H](CO)C(=O)N[C@@H](Cc2c[nH]c3ccccc23)C(=O)N1C [Example 1082] ({CH2CO}-F[NMeA]LPHL[Sar]WSW[NMeNle][NMeNle]RCG-NH2; thioether N-14) | > 30.5 nM |  | > 74.3 nM
CCCC[C@H]1C(=O)N(C)[C@@H](CCCC)C(=O)N[C@@H](CCCNC(=N)N)C(=O)NC(C(=O)NCC(N)=O)CSCC(=O)N[C@@H](Cc2ccc(O)cc2)C(=O)N(C)[C@@H](C)C(=O)N[C@@H](CC(N)=O)C(=O)N2CCC[C@H]2C(=O)N[C@@H](Cc2cnc[nH]2)C(=O)N[C@@H](CC(N)=O)C(=O)N2CCC[C@H]2C(=O)N[C@@H](Cc2c[nH]c3ccccc23)C(=O)N[C@@H](CO)C(=O)N[C@@H](Cc2c[nH]c3ccccc23)C(=O)N1C (stereo partly shown) [Example 9063] ({CH2CO}-Y[NMeA]NPHNPWSW[NMeNle][NMeNle]R[ξC]G-NH2; thioether N-14) | 0.385 to 6.74 nM | 0.158 to 4.71 nM | 
CCCC[C@H]1C(=O)N(C)[C@@H](CCCC)C(=O)N[C@@H](CN)C(=O)N[C@H](C(=O)NCC(N)=O)CSCC(=O)N[C@@H](Cc2ccc(O)cc2)C(=O)N(C)[C@@H](C)C(=O)N[C@@H](CC(N)=O)C(=O)N2CCC[C@H]2C(=O)N[C@@H](CN)C(=O)N[C@@H](CC(C)C)C(=O)N2C[C@H](O)C[C@H]2C(=O)N[C@@H](Cc2c[nH]c3ccccc23)C(=O)N[C@@H](CO)C(=O)N[C@@H](Cc2csc3ccccc23)C(=O)N1C [Example 1161] ({CH2CO}-Y[NMeA]NP[Dap]L[Hyp]WS[Bta][NMeNle][NMeNle][Dap]CG-NH2; thioether N-14) | 0.385 to 6.74 nM |  | 0.158 to 4.71 nM
CCCC[C@H]1C(=O)N(C)[C@@H](CCCC)C(=O)N[C@@H](CCCNC(=N)N)C(=O)N[C@H](C(=O)NCC(N)=O)CSCC(=O)N[C@@H](Cc2cccc(C#N)c2)C(=O)N(C)[C@@H](C)C(=O)N[C@@H](CC(N)=O)C(=O)N2CCC[C@H]2C(=O)N[C@@H](CN)C(=O)N[C@@H](CC(C)C)C(=O)N2C[C@H](O)C[C@H]2C(=O)N[C@@H](Cc2c[nH]c3ccccc23)C(=O)N[C@@H](CO)C(=O)N[C@@H](Cc2c[nH]c3ccccc23)C(=O)N1C [Example 7037] ({CH2CO}-[Phe(3-CN)][NMeA]NP[Dap]L[Hyp]WSW[NMeNle][NMeNle]RCG-NH2; thioether N-14) | 6.76 to 30.3 nM | 4.78 to 72.9 nM | 
CCCC[C@H]1C(=O)N2CCC[C@@H]2C(=O)N[C@@H](CC(=O)O)C(=O)N[C@@H](C(C)C)C(=O)N(C)[C@@H](Cc2ccccc2)C(=O)N[C@@H](CCCN)C(=O)N2CCC[C@@H]2C(=O)N[C@@H](Cc2c[nH]c3ccccc23)C(=O)N[C@@H](Cc2ccc(O)cc2)C(=O)N[C@@H](CC(C)C)C(=O)N[C@H](C(=O)NCC(N)=O)CSCC(=O)N[C@@H](Cc2ccccc2)C(=O)N(C)[C@@H](Cc2ccccc2)C(=O)N1C [Example 3188] (HELM PEPTIDE1{[O=C(C[*:3])[*:2]].F.[meF].[CCCC[C@@H](C(=O)[*:2])N(C)[*:1]].[dP].D.V.[meF].[Orn].[dP].W.Y.L.C.G.[am]}$PEPTIDE1,PEPTIDE1,1:R3-14:R3$$$V2.0) | 6.76 to 30.3 nM |  | 0.158 to 4.71 nM
CCCC[C@H]1C(=O)N(C)[C@@H](CCCC)C(=O)N[C@@H](CCCNC(=N)N)C(=O)N[C@H](C(=O)NCC(N)=O)CSCC(=O)N[C@@H](Cc2ccccc2)C(=O)N(C)[C@@H](C)C(=O)N[C@@H](CC(N)=O)C(=O)N2CCC[C@H]2C(=O)N[C@@H](Cc2cnc[nH]2)C(=O)N[C@@H](CC(C)C)C(=O)N(C)CC(=O)N[C@@H](Cc2c[nH]c3ccc(Cl)cc23)C(=O)N[C@@H](CO)C(=O)N[C@@H](Cc2c[nH]c3ccccc23)C(=O)N1C [Example 1026] ({CH2CO}-F[NMeA]NPHL[Sar][Trp(5-Cl)]SW[NMeNle][NMeNle]RCG-NH2; thioether N-14) | > 30.5 nM |  | > 74.3 nM
CCCC[C@H]1C(=O)N(C)[C@@H](C)C(=O)N[C@@H](CCCNC(=N)N)C(=O)NC(C(=O)NCC(N)=O)CSCC(=O)N[C@@H](Cc2ccc(O)cc2)C(=O)N(C)[C@@H](C)C(=O)N[C@@H](CC(N)=O)C(=O)N2CCC[C@H]2C(=O)N[C@@H](Cc2cnc[nH]2)C(=O)N[C@@H](CC(C)C)C(=O)N2CCC[C@H]2C(=O)N[C@@H](Cc2c[nH]c3ccccc23)C(=O)N[C@@H](CO)C(=O)N[C@@H](Cc2c[nH]c3ccccc23)C(=O)N1C (stereo partly shown) [Example 9054] ({CH2CO}-Y[NMeA]NPHLPWSW[NMeNle][NMeA]R[ξC]G-NH2; thioether N-14) | 0.385 to 6.74 nM | 4.78 to 72.9 nM | 
CCCC[C@H]1C(=O)N(C)CC(=O)N[C@@H](CC(=O)O)C(=O)N[C@@H](C2CCCCC2)C(=O)N(C)[C@@H](Cc2ccccc2)C(=O)N[C@@H](Cc2ccc(O)cc2)C(=O)N(C)CC(=O)N[C@@H](Cc2c[nH]c3ccccc23)C(=O)N[C@@H](Cc2ccc(O)cc2)C(=O)N[C@@H](CC(C)C)C(=O)N[C@H](C(=O)NCC(N)=O)CSCC(=O)N[C@@H](Cc2ccccc2)C(=O)N(C)[C@@H](Cc2ccccc2)C(=O)N1C [Example 3158] ({CH2CO}-F[NMeF][NMeNle][Sar]D[Chg][NMeF]Y[Sar]WYLCG-NH2; thioether N-13) | > 30.5 nM |  | 4.78 to 72.9 nM
CCCC[C@H]1C(=O)N(C)CC(=O)N[C@@H](CC(=O)O)C(=O)N[C@@H](C(C)C)C(=O)N(C)[C@@H](Cc2ccccc2)C(=O)N[C@@H](Cc2ccc(O)cc2)C(=O)N(C)CC(=O)N[C@@H](Cc2c[nH]c3ccccc23)C(=O)N[C@@H](Cc2ccc(O)cc2)C(=O)N[C@@H](CC(C)C)C(=O)N[C@H](C(=O)NCC(N)=O)CSCC(=O)N[C@@H](Cc2ccccc2C)C(=O)N(C)[C@@H](Cc2ccccc2)C(=O)N1C [Example 3105] ({CH2CO}-[Phe(2-Me)][NMeF][NMeNle][Sar]DV[NMeF]Y[Sar]WYLCG-NH2; thioether N-13) | > 30.5 nM |  | > 74.3 nM
